Test results: patent EP4640234A1, “PHARMACEUTICAL COMPOSITION FOR PREVENTING OR TREATING GRAFT-VERSUS-HOST DISEASE CONTAINING GLP-2 DERIVATIVE OR LONG-ACTING CONJUGATE THEREOF” (Hanmi Pharm. Co., Ltd., priority 2022, dated 2024)

Tested on: SR-GVHD model induced by allogeneic transplantation
Assay: SR-GVHD mouse allogeneic transplantation model, switching from steroid to conjugate (Example 4)
Format: in vivo, BALB/C mice (recipients)
Details: Group 2: Apraglutide 469 µg/kg once every other day, subcutaneously, from 3 days after splenocyte injection; excipient group 21.4%; FIG. 4
Experimental: In order to construct a mouse allogeneic transplantation model as a graft-versus-host disease (GVHD) model, female donor mice C57BL/6j were purchased from OrientBio (Korea), and female recipient mice BALB/C were purchased from DBL (Korea). The mice were raised in a sterile environment with a 12-h light/dark cycle. Food and water were provided ad libitum, and all procedures were performed under the approval of the Animal Experimentation Committee.
In order to mobilize hematopoietic stem cells (HSCs) into peripheral blood from 13-week-old C57BL/6j mice (donors), 10 µg of G-CSF (granulocyte-colony stimulating factor) (PeproTech, USA) was injected subcutaneously for 5 days, and then 1.5 × 10^7 splenocytes were collected. The 1.5 × 10^7 splenocytes (200 µL volume) were injected into BALB/C mice (recipients) through the tail vein. […]
The numerical value expressed as the dose of the GLP-2 derivative long-acting conjugate herein is based on the value acquired by excluding the mass of the polyethylene glycol linker moiety from the total mass of the GLP-2 derivative long-acting conjugate used, that is, the sum of the masses of only the polypeptide moieties.
The onset signs were evaluated using the same criteria as in Table 3, the survival rate was determined, and the small intestine and colon tissues were harvested and pathological changes were observed.

## Apraglutide
  survival rate on day 25: 35.7%
